In PubChem BioAssay (NCI):
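Exposure lasted 48 hours, with cells grown in 96-well plates and compounds tested at five concentrations. Here, GI50 denotes the concentration required for 50% inhibition of growth. Definition used: TGI = concentration required for complete inhibition of growth.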

What was measured:
Assay in all cases: NCI tumour cell line growth inhibition, 48 h
DLD-1 colon = system: DLD-1 colon
DMS 273 small cell lung = system: DMS 273 small cell lung
HOP-62 NSCLC = system: HOP-62 NSCLC
HOP-92 NSCLC = system: HOP-92 NSCLC
KM12 colon = system: KM12 colon
M19-MEL melanoma = system: M19-MEL melanoma
SF-295 CNS = system: SF-295 CNS
SK-MEL-2 melanoma = system: SK-MEL-2 melanoma
U251 CNS = system: U251 CNS
UACC-257 melanoma = system: UACC-257 melanoma
OVCAR-4 ovarian = system: OVCAR-4 ovarian

| SMILES | TGI (DLD-1 colon) [µM] | TGI (DMS 273 small cell lung) [µM] | TGI (HOP-62 NSCLC) [µM] | TGI (HOP-92 NSCLC) [µM] | TGI (KM12 colon) [µM] | TGI (M19-MEL melanoma) [µM] | TGI (SF-295 CNS) [µM] | TGI (SK-MEL-2 melanoma) [µM] | TGI (U251 CNS) [µM] | TGI (UACC-257 melanoma) [µM] | GI50 (HOP-62 NSCLC) [µM] | GI50 (HOP-92 NSCLC) [µM] | GI50 (KM12 colon) [µM] | GI50 (OVCAR-4 ovarian) [µM] | TGI (OVCAR-4 ovarian) [µM] | GI50 (SF-295 CNS) [µM] | GI50 (SK-MEL-2 melanoma) [µM] | GI50 (U251 CNS) [µM] | GI50 (UACC-257 melanoma) [µM] |
| --- | --- | --- | --- | --- | --- | --- | --- | --- | --- | --- | --- | --- | --- | --- | --- | --- | --- | --- | --- |
| Cc1nc2sccn2c1C(=O)NN | > 100 | > 100 | > 100 | > 100 | > 100 | > 100 | > 100 | > 100 | > 100 | > 100 | – | – | – | – | – | – | – | – | – |
| CN[C@H]1CN(c2ccc3c(=O)c(C(=O)O)cn(-c4nccs4)c3n2)C[C@@H]1OC | – | – | 3.4 | 0.938 | 13.9 | – | 2.37 | 3.56 | 7.23 | 2.83 | 0.6 | 0.176 | 1.37 | 2.27 | 9.22 | 0.332 | 1.51 | 0.42 | 1.11 |
| O=c1oc2ccc(I)cc2c(=O)n1-c1ccc(Br)cc1F | – | – | 6.65 | 0.634 | 4.69 | – | 3.41 | 2.29 | > 37.5 | 5.02 | 1.83 | 0.207 | 2.07 | 1.12 | 16.5 | 1.72 | 0.385 | 0.75 | 0.735 |
| O=C(CN(/C=C/C(=O)C(F)(F)F)c1ccc(Cl)cc1)c1ccc(Cl)cc1 | – | – | > 100 | 35.8 | 20.8 | – | 17.7 | 14.4 | 20.5 | 20.8 | 32.8 | 19.2 | 3.59 | 12 | 32.4 | 4.66 | 3.88 | 7.53 | 7.45 |
| O=C(O)c1cc(-c2ccc3cc4c(cc3c2)OCO4)nc2ccccc12 | – | – | > 100 | 87.9 | > 100 | – | > 100 | > 100 | > 100 | 35.4 | – | – | – | – | > 100 | – | – | – | – |
| CCc1cccc(C(C)C)c1NC(=O)C(=O)C1C(=O)Nc2ccccc2S1=O (configuration not stated) | – | – | > 100 | > 100 | > 100 | – | > 100 | > 100 | > 100 | > 100 | – | – | – | – | > 100 | – | – | – | – |
| C=CCNC(=O)NCCCCC(NC(C)=O)C(=O)NCc1ccccc1 (configuration not stated) | – | > 100 | > 100 | > 100 | > 100 | > 100 | > 100 | > 100 | > 100 | > 100 | – | – | – | – | > 100 | – | – | – | – |
| CCc1nc(N)nc(N)c1-c1ccc(Cl)c([N+](=O)[O-])c1 | – | – | > 95.5 | > 87.1 | > 100 | – | > 70.4 | 90.5 | > 100 | > 100 | – | – | – | – | > 100 | – | – | – | – |
| C=CSCCC(N)C(=O)O (configuration not stated) | > 100 | > 100 | > 100 | > 100 | > 100 | > 100 | > 100 | – | > 100 | > 100 | – | – | – | – | > 100 | – | – | – | – |
| CCOC(=O)C1=CCCC[C@H]1S(=O)(=O)Nc1ccc(F)cc1Cl | – | – | > 100 | 58.3 | > 100 | – | > 100 | 83.8 | > 100 | > 100 | 25.5 | 15.1 | 27.1 | 31.2 | > 100 | 32.7 | 21 | 24.7 | 35.8 |
| O=c1c2c(nc3n1CCS3)[nH]c1cc([N+](=O)[O-])ccc12 | – | – | > 100 | > 100 | > 100 | – | > 100 | > 100 | > 100 | > 100 | > 100 | 67.9 | > 100 | > 100 | > 100 | > 100 | > 100 | > 100 | > 100 |
| COc1ccc(Nc2nc3cc(N)cc(N)c3nc2-c2ccccc2)cc1 | – | – | > 100 | 52.6 | 30.9 | – | > 100 | 31.4 | 29.8 | 27.5 | 27.6 | 19.9 | 15.9 | 10.4 | 22.1 | 31.9 | 15.6 | 16.3 | – |
| CNC(=O)c1ccc(N2C(=S)N(c3cnc(C#N)c(C(F)(F)F)c3)C(=O)C23CCC3)cc1F | – | – | > 100 | > 100 | > 100 | – | > 100 | > 100 | > 100 | > 100 | > 100 | > 86.7 | > 100 | > 79.2 | > 100 | > 100 | > 100 | > 100 | > 95 |
| O=C1Nc2c(ccc(Cl)c2Cl)/C1=C/c1cc(Br)c(O)c(Br)c1 | – | – | > 68 | 62.3 | 40.2 | – | 19.8 | 20.9 | 43.1 | 26.6 | 11.9 | 7.17 | 4.75 | 5.69 | > 100 | 2.71 | 5.15 | 6.42 | 6.19 |
| COc1ccc2ncn(-c3cc(O[C@H](C)c4ccccc4C(F)(F)F)c(C(N)=O)s3)c2c1 | – | – | 4.18 | 6.44 | 3.04 | – | 6.16 | 4.82 | 6.24 | 6.28 | 0.105 | 0.143 | 0.0794 | 3.49 | 16.1 | 0.162 | 0.12 | 0.166 | 2.55 |
| COc1cc(C2C(Cl)C(=O)N2NC(=O)Cc2ccccc2)cc(Br)c1O (configuration not stated) | > 100 | > 100 | > 100 | – | > 100 | > 100 | > 100 | > 100 | > 100 | > 100 | – | – | – | – | > 100 | – | – | – | – |
| NC(=O)NNC(=O)CCn1[nH]c(=O)c(Cl)c(Cl)c1=O | > 100 | > 100 | > 100 | > 100 | – | > 100 | > 100 | > 100 | > 100 | > 100 | – | – | – | – | > 100 | – | – | – | – |
